In patent publication US9132131B2, “Use of adenosine A3 receptor agonists for treatment of neuropathic pain” (Saint Louis University, priority 2011, dated 2015):

Test system: CCI of the sciatic nerve (mechano-allodynia)
Assay: CCI model of neuropathic pain, mechano-allodynia (von Frey PWT)
Format: in vivo, mice
Description: CCI model of neuropathic pain. CCI to the sciatic nerve of the left hind leg in mice was performed under general anaesthesia using the well-characterized Bennett model. Briefly, mice (weighing 25-30 g at the time of surgery) were anesthetized with 3% isoflurane/100% O2 inhalation and maintained on 2% isoflurane/100% O2 for the duration of surgery. The left thigh was shaved, scrubbed with Nolvasan® and a small incision (1-1.5 cm in length) was made in the middle of the lateral aspect of the left thigh to expose the sciatic nerve. The nerve was loosely ligated around the entire diameter of the nerve at three distinct sites (spaced 1 mm apart) using silk sutures (6.0). The surgical site was closed with a single muscle suture and a skin clip. Pilot studies established that under our experimental conditions peak mechano-allodynia develops by day 5-day 7 (D5-D7) following CCI. Test substances or their vehicles were given subcutaneously (s.c.), intraperitoneally (i.p.) or orally by gavage (0.1 ml) at peak mechano-allodynia (D7).
Behavioral testing. […] The plantar aspect of hindpaws were probed three times with calibrated von Frey filaments (Stoelting, mice: 0.07-2.00 grams; rats: 0.407-26 grams) according to the “up-and-down” method. […] Briefly, each rat was placed in a Plexiglas chamber (28×40×35-cm, wire mesh floor) and after its acclimation, a servo-controlled mechanical stimulus was applied to the plantar surface that exerted a progressively increasing punctate pressure up to 50 grams within 10 seconds. Mechanical threshold was assessed three times at each time point to yield a mean value, reported as PWT (grams). […] Mechano-hyperalgesia was assessed in rats by the Randall and Sellitto paw pressure test using an analgesiometer (Ugo Basile). The nociceptive threshold was defined as the force (grams) at which the rat withdrew its paw (cut off set at 250 grams).
Determining ED50 values. Dose response data were curve-fitted using the least sum of square method by a normalized 4-parameter, variable slope non-linear analysis of the % Reversal of Mechano-allodynia in CCI and % Prevention of Mechano-allodynia or Mechano-hyperalgesia in CIPN using GraphPad Prism (Release 5.03, GraphPad Software, Inc.) from which the ED50 was determined and reported with the 95% confidence interval (95% CI). In the CCI model, the % Reversal of Mechano-allodynia=(PWT1h−PWTD7)/(PWTD0−PWTD7)×100, where PWTD0=Paw Withdrawal Threshold (g) at D0, PWT1h=Paw Withdrawal Threshold (g) at 1 hour after the administration of IB-MECA, gabapentin, amitriptyline, or combinations of IB-MECA with gabapentin or amitriptyline, and PWTD7=Paw Withdrawal Threshold (grams) at D7 prior to drug administration.
Statistical Analysis. Data are expressed as mean±SD for n animals. Behavioral data were analyzed by two-way repeated measures ANOVA with Bonferroni comparisons (full time course studies) or one-way ANOVA Dunnett's comparisons (1 hour behavioral data). The dose response curves were compared to a globally fitted curve using the extra sum-of-squares F-test comparisons to determine whether the data represented distinct curves between treatments. Significant differences were defined at a P<0.05. All statistical analysis was performed using GraphPad Prism (v5.03, GraphPad Software, Inc.).

Compound: CNC(=O)[C@H]1O[C@@H](n2cnc3c(NCc4cccc(I)c4)ncnc32)[C@H](O)[C@@H]1O [IB-MECA, N^6-(3-iodobenzyl)-adenosine-5′-N-methyluronamide]
- anti-allodynic effect of low dose alone (0.2 μmol/kg): devoid of anti-allodynic effects
- reversal of mechano-allodynia on consecutive daily injections (0.5 μmol/kg i.p. daily D8-D15, compared to D7): reversed mechano-allodynia to the same degree as observed on D7
- effect on PWT in contralateral paws (D7 after CCI, drug alone): lacked effect
- time of maximal reversal of mechano-allodynia (after single administration on D7): ≤ 1 h
- onset of reversal of allodynia (i.p. on D7): 30 min
- Emax, reversal of mechano-allodynia (mice, D7 after CCI, drug alone): 100%
- ED50, reversal of mechano-allodynia (mice, D7 after CCI, ipsilateral paw, at time of maximal reversal, drug alone (IB-MECA i.p., morphine s.c., gabapentin i.p., amitriptyline oral)): 0.4 µmol/kg
- reversal of mechano-allodynia in ipsilateral paws (single dose D7, IB-MECA 0.2-2, CI-IB-MECA 0.6, MRS1898 0.5 μmol/kg i.p., morphine 0.11-35 s.c., gabapentin 18-584 i.p., amitriptyline 3-191 μmol/kg oral): reversed allodynia
